Where two headings read alike, the source gives them in different places.
Legend:
HIV-1 [1] = settings: cited from earlier work
HIV-2 = settings: cited from earlier work
HIV = settings: 12.5 mg/day to 200 mg/day (Gulick, 2002); cited from earlier work
[2] = primates; cited from earlier work
SIV = settings: cited from earlier work
[3] = biological target: HIV-1 gp41 (transmembrane subunit of the HIV-1 envelope glycoprotein) (HIV-1) (UniProt P03377); assay: cell-based or functional assay
HIV-1 [4] = settings: low nanomolar range; cited from earlier work
[5] = cited from earlier work; for terminal half-life: humans

Substance: WQEWEQKITALLEQAQIQQEKNEYELQKLDKWASLWEWF [T-1249]
- activity against HIV-1 (HIV-1 [1]): active
- activity against HIV-2 (HIV-2): active
- suppression of HIV (HIV): dose-related suppression of HIV
- half-life / AUC compared with T-20 [2]: twofold increased AUC
- activity against SIV (SIV): active

Substance: C-terminal albumin-(GGS)4GG-T-1249 fusion protein, produced in the standard (PMT1) yeast strain (from UniProt P02768 25-609)
- 50% inhibitory concentration (IC50), HIV-1 cell-cell fusion assay on Jurkat cells [3]: 10 to 100 nM

Substance: enfuvirtide
- activity against HIV-1 (HIV-1 [1]): active against several clades of HIV-1
- antiviral activity in cell-cell fusion assays (HIV-1 [4]): 0.2 to 2 nM
- activity against HIV-2 (HIV-2): does not inhibit
- plasma half-life ([5]; clinical trials, typical dose 50 mg twice daily): about 1.8 hours
- terminal half-life ([5]; 45 mg subcutaneous dose (Zhang X et al., 2002)): 3.46 h
- terminal half-life ([5]; 180 mg subcutaneous dose (Zhang X et al., 2002)): 4.35 h
- activity against SIV (SIV): does not inhibit

Substance: C-terminal albumin-(GGS)4GG-T-20 fusion protein, expressed in the pmt1 gene deficient yeast strain (from UniProt P02768 25-609)
- 50% inhibitory concentration, HIV-1 cell-cell fusion assay on Jurkat cells [3]: 4 to 13 nM

From patent US20060241027A1, “Hiv inhibiting proteins” (priority 2002, published 2006)
